pKi: −log10 of the molar value.

For this assay, the target named is DP IV (Sus scrofa, UniProt P22411). Put plainly: Ki-determination, photometric DP IV assay with substrate GP-4-Nitroanilide. Type of assay: biochemical. Conditions: competitor of GP-4-Nitroanilide, 3.5 nM DP IV, 30° C., pH 7.6 40 mM HEPES. The method, then: In order to measure the inhibition constant Ki a photometric assay was used The test compounds were measured as competitors of the standard substrate GP-4-Nitroanilide. Three different substrate concentrations (0.4 mM to 0.05 mM) were combined with 8 different competitor concentrations (0.5 mM to 2 μM). The reaction was started by addition of 3.5 nM DP IV. Experiments were carried out under standard conditions: 30° C. in pH 7.6 40 mM HEPES (Sigma-Aldrich) buffer. Nitroaniline production was monitored using a HTS 7000+microplate reader (PerkinElmer, Überlingen, Germany). The Ki-values were calculated via non-linear regression using the enzyme kinetic program Grafit 4.016 (Erithacus Ltd, UK).
Chain of DP IV (P22411 whole entry): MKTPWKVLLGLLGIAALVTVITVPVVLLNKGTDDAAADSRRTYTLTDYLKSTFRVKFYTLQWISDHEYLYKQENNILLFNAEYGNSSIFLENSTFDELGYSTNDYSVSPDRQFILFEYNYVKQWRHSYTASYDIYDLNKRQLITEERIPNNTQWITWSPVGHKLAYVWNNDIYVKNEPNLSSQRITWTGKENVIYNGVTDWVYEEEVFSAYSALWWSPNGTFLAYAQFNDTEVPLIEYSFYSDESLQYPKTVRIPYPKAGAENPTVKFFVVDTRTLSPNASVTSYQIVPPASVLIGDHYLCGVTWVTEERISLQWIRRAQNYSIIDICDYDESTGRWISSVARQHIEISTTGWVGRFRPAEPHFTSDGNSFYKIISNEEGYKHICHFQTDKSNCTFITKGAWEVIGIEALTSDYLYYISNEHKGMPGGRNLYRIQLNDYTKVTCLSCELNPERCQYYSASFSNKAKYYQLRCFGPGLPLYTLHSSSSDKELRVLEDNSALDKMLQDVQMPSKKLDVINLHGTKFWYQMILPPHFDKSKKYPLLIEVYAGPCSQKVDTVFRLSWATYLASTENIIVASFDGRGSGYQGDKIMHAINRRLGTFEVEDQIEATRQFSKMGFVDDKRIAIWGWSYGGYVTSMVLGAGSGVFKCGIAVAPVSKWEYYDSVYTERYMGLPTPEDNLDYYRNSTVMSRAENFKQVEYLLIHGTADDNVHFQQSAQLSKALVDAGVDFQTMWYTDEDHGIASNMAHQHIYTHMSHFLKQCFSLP

Compound `CCC(C)C(N)C(=O)C1CCCC1` (stereo not shown) [Example 1, 1-cyclopentyl-3-methyl-1-oxo-2-pentanaminium chloride] had a pKi of 5.20.

A word on the pKi: it is the negative decadic logarithm of the Ki, by convention in mol/L. Lower therefore signals a large Ki.

The values are drawn from US20050014946A1, “Substituted amino ketone compounds” (priority 2001, published 2005).
